Data on three compounds can be found in article doi:10.1101/2024.09.20.614085v3 (biorxiv, 2026).

For this assay, the target named is SARS-CoV-2 RdRp (nsp12-nsp7-nsp8 complex) (Severe acute respiratory syndrome coronavirus 2, UniProt P0DTD1). Nature of the assay: biochemical.

`O=c1ccn([C@@H]2O[C@H](COP(=O)(O)OP(=O)(O)OP(=O)(O)O)C[C@H]2O)c(=O)[nH]1` [3’-dUTP] gave a concentration for a half-maximal effect (EC50) of 751 nM. This counts as sub-micromolar.

Take `Cc1cn([C@@H]2O[C@H](COP(=O)(O)OP(=O)(O)OP(=O)(O)O)C[C@H]2O)c(=O)[nH]c1=O` [5-methyl-3’-dUTP]: the EC50 stood at 107 nM.

Compound `O=c1ccn([C@@H]2O[C@H](COP(=O)(O)OP(=O)(O)OP(=O)(O)O)[C@@H](O)[C@H]2O)c(=O)[nH]1` [UTP] displayed an EC50 of 47.9 nM.

As a reminder, the EC50 is the midpoint of the concentration-response curve. Read a high EC50 as lower potency in that assay.
